Literature values in article PMC12042267, “Expanding the Family of Monosubstituted 15-Membered Pyridine-Based Macrocyclic Ligands for Mn(II) Complexation in the Context of MRI” (Inorganic Chemistry, 2025).
Where two headings read alike, the source gives them in different places.

Columns and labels:
[1] = cited from earlier work
[2] = Ca(II), cited from earlier work
[3] = Cu(II), cited from earlier work
[4] = Zn(II), cited from earlier work
[5] = Mn(II) complex, cited from earlier work; for dissociation half-life t1/2: calculated for pH 7.4, Cu(II) ref 21
[6] = cited from earlier work; for log KML / log KHML / log KML(OH): Mn(II)
[7] = cited from earlier work; remark: listed apart in the source
[8] = cited from earlier work; for r1 (relaxivity): 20 MHz, 0.47 T ref 30
[9] = I = 0.15 M NaCl, 25 °C, log KMnHL in Table 5 ref 21
[10] = pH 7.4, cMn = clig = 10^–5 M ref 21

Structure (SMILES): O=C(O)CN1CCNCc2cccc(n2)CN(CC(=O)O)CC1 [3,6-PC2A]
- log K1^H ([1]; 1.0 M NaCl ref 21): 10.31
- log K2^H ([1]; 1.0 M NaCl ref 21): 8.59
- log K3^H ([1]; 1.0 M NaCl ref 21): 3.92
- log K4^H ([1]; 1.0 M NaCl ref 21): 1.56
- log K1^H ([1]; I = 0.15 M NaCl, 25 °C ref 21): 10.72
- log K2^H ([1]; I = 0.15 M NaCl, 25 °C ref 21): 8.37
- log K3^H ([1]; I = 0.15 M NaCl, 25 °C ref 21): 3.81
- log K4^H ([1]; I = 0.15 M NaCl, 25 °C ref 21): 1.26
- log KHML ([2]; I = 0.15 M NaCl, 25 °C ref 21): 5.27
- log KML ([2]; I = 0.15 M NaCl, 25 °C ref 21): 9.57
- log KHML ([3]; I = 0.15 M NaCl, 25 °C ref 21): 2.37
- log KML ([3]; I = 0.15 M NaCl, 25 °C ref 21): 24.09
- log KHML ([4]; I = 0.15 M NaCl, 25 °C ref 21): 2.36
- log KML ([4]; I = 0.15 M NaCl, 25 °C ref 21): 20.37
- k1 ([5]; Cu(II) transmetalation ref 21): 70 ± 1 M^–1 s^–1
- k2 ([5]; Cu(II) transmetalation ref 21): (1.5 ± 0.4) × 10^5 M^–2 s^–1
- k3 ([5]; Cu(II) transmetalation ref 21): (2.6 ± 0.7) × 10^–2 M^–1 s^–1
- dissociation half-life t1/2 [5]: 63.2 h
- log KML ([6]; I = 0.15 M NaCl, 25 °C ref 21): 15.53
- log KHML [6, 9]: 3.06
- pMn [6, 10]: 8.09

Structure (SMILES): O.O=C([O-])CN1CCOCCOCCNCc2cccc(n2)C1.[Mn+2] [MnL1]
- AO/ℏ [7]: 38.6 10^6 rad s^–1
- ErH [7]: 15.0 ± 0.5 kJ mol^–1
- kex^298 [7]: 0.45 ± 0.02 10^7 s^–1
- ΔH^‡ [7]: 28.1 ± 2.1 kJ mol^–1
- ΔS^‡ [7]: –23 ± 6 J mol^–1K^–1
- Δ^2 [7]: 160 ± 10 10^18 s^–2
- τrH^298 [7]: 35 ± 5 ps
- τv^298 [7]: 8 ± 1 ps
- r1 (relaxivity) ([8]; 25 °C): 2.45 mM^–1 s^–1
- r1 (relaxivity) ([8]; 37 °C): 2.08 mM^–1 s^–1

Structure (SMILES): O=P(O)(O)CN1CCNCc2cccc(n2)CNCC1 [PC1P]
- log K1^H ([1]; 0.1 M NMe4Cl ref 20): 11.84
- log K2^H ([1]; 0.1 M NMe4Cl ref 20): 9.64
- log K3^H ([1]; 0.1 M NMe4Cl ref 20): 6.23
- log K4^H ([1]; 0.1 M NMe4Cl ref 20): 0.99
- log KML ([2]; 0.1 M NMe4Cl ref 20): 6.85
- log KHML ([3]; 0.1 M NMe4Cl ref 20): 4.89
- log KML ([3]; 0.1 M NMe4Cl ref 20): 22.63
- log KHML ([4]; 0.1 M NMe4Cl ref 20): 5.19
- log KML ([4]; 0.1 M NMe4Cl ref 20): 19.66
- log KML(OH) ([4]; 0.1 M NMe4Cl ref 20): 12.33
- log KML ([6]; 0.1 M NMe4Cl ref 20): 14.06
- log KML(OH) ([6]; 0.1 M NMe4Cl ref 20): -11.97
- log KHML ([6]; 0.1 M NMe4Cl, log KMnHL in Table 5 ref 20): 5.35
- pMn ([6]; pH 7.4, cMn = clig = 10^–5 M ref 20): 8.30

Structure (SMILES): NCCN1CCN(CC(=O)[O-])Cc2cccc(n2)CN(CC(=O)[O-])CC1.O.[Mn+2] [[Mn(PC2A-EA)(H2O)]]
- kex^298 [7]: 4.0 ± 0.2 10^7 s^–1
- r1p298 ([8]; 298 K and 0.47 T, pH 6.0 ref 22): 2.1 mM^–1 s^–1
- r1p298 ([8]; 298 K and 0.47 T, pH 7.4 ref 22): 3.5 mM^–1 s^–1

Structure (SMILES): O.O=C([O-])CN1CCN(Cc2ccc(-c3ccccc3)cc2)CCN(CC(=O)[O-])Cc2cccc(n2)C1.[Mn+2] [[Mn(PC2A-BP)(H2O)]]
- kex^298 ([7]; Table 7, footnote h ref 29): 6.3 ± 0.2 10^7 s^–1
- ΔH^‡ ([7]; Table 7, footnote h ref 29): 35.7 ± 0.1 kJ mol^–1
- r1p298 ([8]; determined at pH 7.4 ref 29): 4.96 mM^–1 s^–1
- r1p298 ([8]; measured in the presence of HSA ref 55): 35.7 mM^–1 s^–1

Structure (SMILES): c1cc2nc(c1)CNCCOCCOCCNC2 [15-pyN3O2]
- log K1^H ([1]; 0.1 M NMe4Cl ref 28): 8.82
- log K2^H ([1]; 0.1 M NMe4Cl ref 28): 7.80
- log KML ([2]; 0.1 M NMe4Cl ref 28): 2.04
- log KML(OH) ([2]; 0.1 M NMe4Cl ref 28): -11.92
- log KML ([3]; 0.1 M NMe4Cl ref 28): 13.91
- log KML(OH) ([3]; 0.1 M NMe4Cl ref 28): -8.34
- log KML(OH)2 ([3]; 0.1 M NMe4Cl ref 28): -12.57
- log KML ([4]; 0.1 M NMe4Cl ref 28): 8.58
- log KML(OH) ([4]; 0.1 M NMe4Cl ref 28): -10.31
- log KML ([6]; 0.1 M NMe4Cl ref 28): 7.18
- log KML(OH) ([6]; 0.1 M NMe4Cl ref 28): -11.69
- pMn ([6]; pH 7.4, cMn = clig = 10^–5 M ref 28): 5.28

Structure (SMILES): O.O=C([O-])CN1CCOCCN(CC(=O)[O-])Cc2cccc(n2)C1.[Mn+2] [Mn(3,9-OPC2A)]
- kex^298 [7]: 5.3 ± 0.4 10^7 s^–1
- ΔH^‡ [7]: 28.5 ± 1.7 kJ mol^–1
- k0 ([5]; Cu(II) transmetalation ref 26): (8.6 ± 1.1) × 10^–6 s^–1
- r1p298 ([8]; determined at pH 7.4 ref 26): 3.09 mM^–1 s^–1

Structure (SMILES): O=C(O)CN1CCNCCN(CC(=O)O)Cc2cccc(n2)C1 [3,9-PC2A]
- log K1^H ([1]; 0.1 M KCl ref 42): 12.50
- log K2^H ([1]; 0.1 M KCl ref 42): 5.75
- log K3^H ([1]; 0.1 M KCl ref 42): 3.28
- log K4^H ([1]; 0.1 M KCl ref 42): 2.38
- log K1^H ([1]; I = 0.15 M NaCl, 25 °C ref 21): 12.25
- log K2^H ([1]; I = 0.15 M NaCl, 25 °C ref 21): 5.97
- log K3^H ([1]; I = 0.15 M NaCl, 25 °C ref 21): 3.47
- log K4^H ([1]; I = 0.15 M NaCl, 25 °C ref 21): 1.99
- log KHML ([2]; I = 0.15 M NaCl, 25 °C ref 21): 5.08
- log KML ([2]; I = 0.15 M NaCl, 25 °C ref 21): 9.92
- log KHML ([3]; I = 0.15 M NaCl, 25 °C ref 21): 2.12
- log KML ([3]; I = 0.15 M NaCl, 25 °C ref 21): 23.58
- log KHML ([4]; I = 0.15 M NaCl, 25 °C ref 21): 2.74
- log KML ([4]; I = 0.15 M NaCl, 25 °C ref 21): 19.49
- k1 ([5]; Cu(II) transmetalation ref 21): 221 ± 5 M^–1 s^–1
- k3 ([5]; Cu(II) transmetalation ref 21): (3.6 ± 0.7) × 10^–2 M^–1 s^–1
- dissociation half-life t1/2 [5]: 21.0 h
- log KML ([6]; I = 0.15 M NaCl, 25 °C ref 21): 17.09
- log KHML [6, 9]: 2.14
- pMn [6, 10]: 8.64
